Assay results published in PMC6017735, “Novel Semisynthetic Derivatives of Bile Acids as Effective Tyrosyl-DNA Phosphodiesterase 1 Inhibitors” (Molecules : A Journal of Synthetic Chemistry and Natural …, 2018).
Values joined by “and” are separate entries in the source; they are usually repeats but may differ in a detail not shown here. Equal values may be shown once. Read-outs that look alike come from different tables or passages of the source.

Tests used:
Tdp1 [1] = target: T1, Tdp1 (Homo sapiens, UniProt Q9NUW8); assay: Real-time detection of Tdp1 activity with FAM-BHQ1 oligonucleotide biosensor; assay type: biochemical
T1 construct: inferred from the pET 16B vector and the Ni-chelating resin) (N); made in house
Description: For testing, we used recently designed oligonucleotide biosensors for the real-time detection of Tdp1 activity based on the ability of Tdp1 to remove fluorophore quenchers from the 3′-end of DNA [27]. The hexadecameric oligonucleotide carried 5(6)-carboxyfluorescein (FAM) at the 5′-end and fluorophore quencher BHQ1 (Black Hole Quencher-1) at the 3′-end. Tdp1 inhibitors prevent the removal of fluorophore quenchers, thus reducing fluorescence intensity.
The recombinant Tdp1 was purified to homogeneity by chromatography on Ni-chelating resin and phosphocellulose P11 as described using the plasmid pET 16B-Tdp1 kindly provided by Dr. K.W. Caldecott (University of Sussex, United Kingdom).
Real-Time Detection of Tdp1 Activity. The Tdp1 activity measurements were carried out as described. Briefly, Tdp1-biosensor with a final concentration of 50 nM was incubated in a volume of 200 μL containing a Tdp1 buffer (50 mM Tris-HCl pH8.0, 50 mM NaCl, 7 mM β-mercaptoethanol) supplemented with purified 1.3 nM Tdp1 and various concentrations of the inhibitor in a 1.5% DMSO solution. Fluorescence measurements (Ex485/Em520 nm) were carried out during the linear phase of reaction (from 0 to 8 min) every 55 s. The reactions were incubated at a constant temperature of 26 °C in a POLARstar OPTIMA fluorimeter, BMG LABTECH, GmbH. The influence of compounds was evaluated by comparing the fluorescence increase rate in the presence of compounds to that of the DMSO control wells.

Tdp1 [2] = target: T1, Tdp1; settings: single- and double-stranded substrates of DNA; cited from earlier work
[3] = IC50 (concentration that inhibits the activity of the enzyme by 50%), samples synthesized by the authors, 50 nM biosensor, 1.3 nM Tdp1, 26 °C

T1 sequence (Q9NUW8 whole entry): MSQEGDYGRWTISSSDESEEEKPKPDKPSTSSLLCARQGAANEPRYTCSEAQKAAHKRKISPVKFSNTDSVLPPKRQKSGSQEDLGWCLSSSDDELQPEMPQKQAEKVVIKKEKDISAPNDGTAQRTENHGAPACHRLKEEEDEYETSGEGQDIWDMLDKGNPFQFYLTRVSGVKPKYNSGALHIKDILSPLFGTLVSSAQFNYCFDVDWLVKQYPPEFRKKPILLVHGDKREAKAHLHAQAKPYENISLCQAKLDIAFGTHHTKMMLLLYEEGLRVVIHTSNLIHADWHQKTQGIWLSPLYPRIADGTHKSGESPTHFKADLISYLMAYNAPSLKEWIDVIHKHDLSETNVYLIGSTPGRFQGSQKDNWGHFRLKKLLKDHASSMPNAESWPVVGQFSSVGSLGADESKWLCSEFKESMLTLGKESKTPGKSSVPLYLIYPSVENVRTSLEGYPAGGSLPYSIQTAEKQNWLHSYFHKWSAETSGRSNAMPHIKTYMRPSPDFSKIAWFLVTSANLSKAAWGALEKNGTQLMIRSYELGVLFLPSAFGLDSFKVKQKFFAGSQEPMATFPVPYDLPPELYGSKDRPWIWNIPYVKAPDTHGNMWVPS

Compound | IC50 (Tdp1 [1]; [3]) | further results
Cc1ccc(NC(=O)CC[C@@H](C)[C@H]2CC[C@H]3[C@@H]4CC[C@@H]5C[C@H](O)CC[C@]5(C)[C@H]4C[C@H](O)[C@]23C)cc1 [Compound 6b, N-(p-Tolyl)-3α,12α-dihydroxy-5β-cholan-24-amide] | 7600 ± 3900 nM | 
CC(=O)OC1CCC2(C)C(CCC3C2CC(O)C2(C)C(C(C)CCC(=O)NCCc4c[nH]c5ccccc45)CCC32)C1 (centres unmarked) [Compound 3d] | 480 ± 40 nM | 
CC(CCC(=O)NCCc1c[nH]c2ccccc12)C1CCC2C3C(O)CC4CC(O)CCC4(C)C3CCC12C (centres unmarked) [Compound 1b] | 2650 ± 300 nM | IC50 (Tdp1 [1]; commercial sample of compound 1b (virtual screening hit), read-out: IC50): 300 nM
CC(=O)OC1CCC2(C)C(C1)CC(OC(C)=O)C1C2CCC2(C)C(C(C)CCC(=O)NCCc3c[nH]c4ccccc34)CCC12 (centres unmarked) [Compound 2a] | 380 ± 120 nM | 
N=C(N)c1ccc(-c2ccc(-c3ccc(C(=N)N)cc3)o2)cc1 [Fur, furamidine] |  | Tdp1 inhibition (Tdp1 [2]): low micromolar concentrations
CCN(CC)CCCNC(=O)CC[C@@H](C)[C@H]1CCC2[C@@H]3CC[C@@H]4C[C@H](OC(C)=O)CC[C@]4(C)C3C[C@H](OC(C)=O)[C@@]21C (stereo partly drawn) [Compound 10a, N-(3′,3′-Diethylaminopropyl)-3α,12α-diacetoxy-5β-cholan-24-amide] | > 15000 nM | 
C[C@H](CCC(=O)NC12CC3CC(CC(C3)C1)C2)[C@H]1CCC2[C@@H]3CC[C@@H]4C[C@H](O)CC[C@]4(C)C3C[C@H](O)[C@@]21C (stereo partly drawn) [Compound 8b, N-(1′-Adamantyl)-3α,12α-dihidroxy-5β-cholan-24-amide] | 2300 ± 400 nM | 
CC(CCC(=O)NCCc1c[nH]c2ccccc12)C1CCC2C3CCC4CC(O)CCC4(C)C3CC(O)C12C (centres unmarked) [Compound 3b] | 2700 ± 200 nM | 
C[C@H](CCC(=O)Nc1cccnc1)[C@H]1CC[C@H]2[C@@H]3CC[C@@H]4C[C@H](O)CC[C@]4(C)[C@H]3C[C@H](O)[C@]12C [Compound 7b, N-(Pyridin-3-yl)-3α,12α-dihydroxy-5β-cholan-24-amide] | > 15000 nM | 
C[C@H](CCC(=O)Nc1ccccc1)[C@H]1CC[C@H]2[C@@H]3CC[C@@H]4C[C@H](O)CC[C@]4(C)[C@H]3C[C@H](O)[C@]12C [Compound 4b, N-Phenyl-3α,12α-dihydroxy-5β-cholan-24-amide] | 6700 ± 700 nM | 
CC(=O)OC1CCC2(C)C(CCC3C2CC(OC(C)=O)C2(C)C(C(C)CCC(=O)NCCc4cc(C(C)(C)C)c(O)c(C(C)(C)C)c4)CCC32)C1 (stereo not drawn) [Compound 9a, N-(2′′-(3′,5′-Di-tret-buthyl-4′-hydroxyphenyl)-ethyl)-3α,12α-diacetoxy-5β-cholan-24-amide] | 290 ± 120 nM | 
CC(=O)O[C@@H]1CC[C@@]2(C)[C@H](CC[C@@H]3[C@@H]2C[C@H](OC(C)=O)[C@]2(C)[C@@H]([C@H](C)CCC(=O)Nc4cccnc4)CC[C@@H]32)C1 [Compound 7a, N-(Pyridin-3-yl)-3α,12α-diacetoxy-5β-cholan-24-amide] | 4080 ± 80 nM | 
CC(=O)OC1CC2C(CCC3CC(O)CCC32C)C2CCC(C(C)CCC(=O)NCCc3c[nH]c4ccccc34)C12C (centres unmarked) [Compound 3c] | 950 ± 50 nM | 
CC(=O)O[C@@H]1CC[C@@]2(C)[C@H](CC[C@@H]3[C@@H]2C[C@H](OC(C)=O)[C@]2(C)[C@@H]([C@H](C)CCC(=O)Nc4ccccc4)CC[C@@H]32)C1 [Compound 4a, N-Phenyl-3α,12α-diacetoxy-5β-cholan-24-amide] | 430 ± 130 nM | 
CC(=O)OC1CCC2(C)C(C1)CC(OC(C)=O)C1C2CCC2(C)C(C(C)CCC(=O)NCCc3c[nH]c4ccccc34)CCC12 (centres unmarked) [Compound 1a] | 320 ± 110 nM | 
CC(=O)O[C@@H]1CC[C@@]2(C)[C@H](CC[C@@H]3[C@@H]2C[C@H](OC(C)=O)[C@]2(C)[C@@H]([C@H](C)CCC(=O)Nc4ccc(Br)cc4)CC[C@@H]32)C1 [Compound 5a, N-(4′-Bromophenyl)-3α,12α-diacetoxy-5β-cholan-24-amide] | 420 ± 10 nM | 
CC(=O)OC1CCC2(C)C(CCC3C2CC(OC(C)=O)C2(C)C(C(C)CCC(=O)NCCc4c[nH]c5ccccc45)CCC32)C1 (centres unmarked) [Compound 3a] | 650 ± 160 nM | 
CC(=O)O[C@@H]1CC[C@]2(C)C3C[C@H](OC(C)=O)[C@@]4(C)C(CC[C@@H]4[C@H](C)CCC(=O)NC45CC6CC(CC(C6)C4)C5)[C@@H]3CC[C@@H]2C1 (stereo partly drawn) [Compound 8a, N-(1′-Adamantyl)-3α,12α-diacetoxy-5β-cholan-24-amide] | 470 ± 80 nM | 
CC(=O)O[C@@H]1CC[C@@]2(C)[C@H](CC[C@@H]3[C@@H]2C[C@H](OC(C)=O)[C@]2(C)[C@@H]([C@H](C)CCC(=O)Nc4ccc(C)cc4)CC[C@@H]32)C1 [Compound 6a, N-(p-Tolyl)-3α,12α-diacetoxy-5β-cholan-24-amide] | 1000 ± 50 nM | 
CC(CCC(=O)NCCc1c[nH]c2ccccc12)C1CCC2C3C(O)CC4CC(O)CCC4(C)C3CCC12C (centres unmarked) [Compound 2b] | ~2600 nM and 2600 nM | 
CC(=O)O[C@@H]1CC[C@@]2(C)[C@H](CC[C@@H]3[C@@H]2C[C@H](OC(C)=O)[C@]2(C)[C@@H]([C@H](C)CCC(=O)NCCCN4CCOCC4)CC[C@@H]32)C1 [Compound 11a, N-(3′-Morpholinopropyl)-3α,12α-diacetoxy-5β-cholan-24-amide] | > 15000 nM | 
C[C@H](CCC(=O)Nc1ccc(Br)cc1)[C@H]1CC[C@H]2[C@@H]3CC[C@@H]4C[C@H](O)CC[C@]4(C)[C@H]3C[C@H](O)[C@]12C [Compound 5b, N-(4′-Bromophenyl)-3α,12α-dihydroxy-5β-cholan-24-amide] | 1300 ± 200 nM | 
